Experimental data taken from US7691601B2, “Medium for detecting and/or identifying of microorganisms” (priority 2003, dated 2010).

Test system: Candida dubliniensis
Experiment: Coloration of Candida dubliniensis colonies on detection medium
Format: cell-based
Set-up: key: 0=absence of coloration; 0.5=trace coloration; 1=weak coloration; 2=strong coloration
Conditions: Table 4, 5 mg/l
Experimental: Preparation of the detection medium: A volume of 250 ml of detection medium is prepared from a powdered medium having the following composition:
Melting is carried out at 100° C., and the medium is autoclaved at 121° C. for 15 minutes. The additives are then added to the medium: Magenta C8 (500 mg/l; B-7102, BIOSYNTH, Staad, Switzerland); X-glucoside (75 mg/l; B-7250, BIOSYNTH, Staad, Switzerland); cefsulodine (10 mg/l; C 4786, Sigma, St Quentin Fallavier, France), and also the esterase inhibitor: • ? O,O-diethyl p-nitrophenyl phosphate: 5 mg/l • ? O,O-dimethyl p-nitrophenyl phosphate: 25 mg/l or • ? O,O-di-(2-chloroethyl)-O-(3-chloro-4-methylcoumarin-7-yl)phosphate: 75 mg/l
The various selection media thus obtained are then poured into Petri dishes.
Seeding of yeast of the Candida genus: 10 μl of stools are deposited onto a Petri dish, and this stool suspension is mixed or not mixed with 10 μl of a suspension of Candida and isolated as 3 dials on a Petri dish. Various stools and various strains of Candida genus originating from the applicant's collection are used according to this protocol. The Petri dishes are incubated at 37° C. for 24 hours.
The appearance of a coloration at the point of deposit of the stool and in the Candida colonies is read according to a semi-quantitative scale: • 0=absence of coloration • 0.5=trace coloration • 1=weak coloration • 2=strong coloration.

SMILES: CCOP(=O)(OCC)Oc1ccc([N+](=O)[O-])cc1 [O,O-diethyl p-nitrophenyl phosphate]
- Colonies coloration (stool A): 0.5
- Colonies coloration (stool B): 0.5
